In PubChem BioAssay AID248 (DTP/NCI, 2004):
Several values for one entry are separate records, joined by “and”; a condition that tells them apart may be missing. Identical values can stand only once. Toxic doses and inconclusive results are not listed. Cut-off read from the data, not from the text of the source: active = T/C of 150% or more; inactive = T/C below 125%.

Test system: L1210 leukemia ip in BDF1 mice, survival T/C
Assay: NCI In Vivo Anticancer Drug Screen. Data for tumor model L1210 Leukemia (intraperitoneal) in B6D2F1 (BDF1) mice
Conditions: endpoint: mean survival time, higher = longer survival
In short: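 Each compound was tested against a transplantable tumor grown in mice. The endpoint was survival, with treated animals benchmarked against vehicle controls as a simple ratio.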

[1] = dose: 100.0 mg/kg/injection, schedule: Q01DX001 (ip), vehicle: carboxymethylcellulose (CMC)
[2] = dose: 200.0 mg/kg/injection, schedule: Q01DX001 (ip), vehicle: carboxymethylcellulose (CMC)
[3] = dose: 50.0 mg/kg/injection, schedule: Q01DX009 (ip), vehicle: saline with Tween-80
[4] = dose: 100.0 mg/kg/injection, schedule: Q01DX009 (ip), vehicle: saline with Tween-80
[5] = dose: 200.0 mg/kg/injection, schedule: Q01DX009 (ip), vehicle: saline with Tween-80
[6] = dose: 100.0 mg/kg/injection, schedule: Q04DX003 (ip), vehicle: Klucel (hydroxypropylcellulose) (HPC)
[7] = dose: 200.0 mg/kg/injection, schedule: Q04DX003 (ip), vehicle: Klucel (hydroxypropylcellulose) (HPC)
[8] = dose: 400.0 mg/kg/injection, schedule: Q04DX003 (ip), vehicle: Klucel (hydroxypropylcellulose) (HPC)
[9] = dose: 100.0 mg/kg/injection, schedule: Q01DX001 (ip), vehicle: saline
[10] = dose: 200.0 mg/kg/injection, schedule: Q01DX001 (ip), vehicle: saline
[11] = dose: 400.0 mg/kg/injection, schedule: Q01DX001 (ip), vehicle: saline
[12] = dose: 25.0 mg/kg/injection, schedule: Q04DX002 (ip), vehicle: Klucel (hydroxypropylcellulose) (HPC)
[13] = dose: 50.0 mg/kg/injection, schedule: Q04DX002 (ip), vehicle: Klucel (hydroxypropylcellulose) (HPC)
[14] = dose: 100.0 mg/kg/injection, schedule: Q04DX003 (ip), vehicle: saline
[15] = dose: 200.0 mg/kg/injection, schedule: Q04DX003 (ip), vehicle: saline
[16] = dose: 400.0 mg/kg/injection, schedule: Q04DX003 (ip), vehicle: saline
[17] = dose: 50.0 mg/kg/injection, schedule: Q01DX009 (ip), vehicle: Klucel (hydroxypropylcellulose) (HPC)
[18] = dose: 100.0 mg/kg/injection, schedule: Q01DX009 (ip), vehicle: Klucel (hydroxypropylcellulose) (HPC)

Measured: T/C

ONC(=NCc1ccccc1)c1ccccc1
inactive: [1] 97 % of control | [2] 103 % of control

CC(=O)c1ccc(C(=O)O)cc1
inactive: [3] 87 % of control | [4] 115 % of control | [5] 94 % of control

COc1ccccc1C(=S)N1CCOCC1
inactive: [6] 91 % of control | [7] 96 % of control | [8] 99 % of control

O=C(CBr)c1cc(-c2ccc(Cl)c(Cl)c2)nc2c(Cl)cc(Cl)cc12
inactive: [9] 94 % of control | [10] 95 % of control | [11] 94 % of control

CCCCCCCCC1NC1CCCCCCCC(=O)OC (centres undefined)
inactive: [12] 101 % of control | [13] 107 % of control | dose: 100.0 mg/kg/injection, schedule: Q04DX002 (ip), vehicle: Klucel (hydroxypropylcellulose) (HPC) 98 % of control

COc1cc(N(CCCl)CCCl)ccc1C=Nc1cccc(Cl)c1
inactive: dose: 50.0 mg/kg/injection, schedule: Q01DX001 (ip), vehicle: carboxymethylcellulose (CMC) 114 % of control | [1] 111 % of control | [2] 100 % of control | dose: 400.0 mg/kg/injection, schedule: Q01DX001 (ip), vehicle: carboxymethylcellulose (CMC) 100 % of control

COc1ccc(OC)c(NC(=O)NNC(=O)CNC(=O)Nc2cccc([N+](=O)[O-])c2)c1
inactive: [4] 89 % of control | [5] 91 % of control | dose: 400.0 mg/kg/injection, schedule: Q01DX009 (ip), vehicle: saline with Tween-80 91 % of control

C=CCc1cn(C2CC(O)C(CO)O2)c(=O)[nH]c1=O (centres undefined)
inactive: dose: 50.0 mg/kg/injection, schedule: Q01DX001 (ip), vehicle: saline 101 % of control | dose: 50.0 mg/kg/injection, schedule: Q04DX002 (ip), vehicle: saline 91 % of control | [9] 100 % of control and 101 % of control and 106 % of control | dose: 100.0 mg/kg/injection, schedule: Q01DX009 (ip), vehicle: saline 98 % of control | dose: 100.0 mg/kg/injection, schedule: Q04DX002 (ip), vehicle: saline 110 % of control | [14] 106 % of control | dose: 115.0 mg/kg/injection, schedule: Q01DX009 (ip), vehicle: saline 104 % of control | dose: 175.0 mg/kg/injection, schedule: Q01DX009 (ip), vehicle: saline 102 % of control | dose: 178.0 mg/kg/injection, schedule: Q01DX015 (ip), vehicle: saline 110 % of control | dose: 200.0 mg/kg/injection, schedule: Q01DX009 (ip), vehicle: saline 109 % of control and 112 % of control | dose: 200.0 mg/kg/injection, schedule: Q04DX002 (ip), vehicle: saline 100 % of control | [15] 95 % of control | dose: 264.0 mg/kg/injection, schedule: Q01DX009 (ip), vehicle: saline 110 % of control | dose: 267.0 mg/kg/injection, schedule: Q01DX015 (ip), vehicle: saline 107 % of control | dose: 400.0 mg/kg/injection, schedule: Q01DX009 (ip), vehicle: saline 115 % of control | dose: 400.0 mg/kg/injection, schedule: Q01DX015 (ip), vehicle: saline 119 % of control | [16] 111 % of control | dose: 600.0 mg/kg/injection, schedule: Q01DX015 (ip), vehicle: saline 121 % of control | dose: 800.0 mg/kg/injection, schedule: Q01DX001 (ip), vehicle: saline 105 % of control | dose: 1600.0 mg/kg/injection, schedule: Q01DX001 (ip), vehicle: saline 110 % of control

CCOCc1cn(CCCc2ccccc2)c(=O)[nH]c1=O
inactive: dose: 12.5 mg/kg/injection, schedule: Q04DX002 (ip), vehicle: Klucel (hydroxypropylcellulose) (HPC) 106 % of control | [12] 102 % of control | [13] 106 % of control

CCC1(O)CC2c3ccccc3CCN2CC1CC(C)C (centres undefined)
inactive: dose: 12.5 mg/kg/injection, schedule: Q01DX009 (ip), vehicle: Klucel (hydroxypropylcellulose) (HPC) 101 % of control | dose: 25.0 mg/kg/injection, schedule: Q01DX009 (ip), vehicle: Klucel (hydroxypropylcellulose) (HPC) 116 % of control | dose: 25.0 mg/kg/injection, schedule: Q04DX003 (ip), vehicle: Klucel (hydroxypropylcellulose) (HPC) 110 % of control | [17] 108 % of control | dose: 50.0 mg/kg/injection, schedule: Q04DX003 (ip), vehicle: Klucel (hydroxypropylcellulose) (HPC) 98 % of control | [18] 121 % of control | [6] 113 % of control | [7] 107 % of control

O=C(CCl)Nc1ccccn1
inactive: [14] 97 % of control | [15] 97 % of control | [16] 88 % of control

Cc1ccccc1NC(=O)N(O)C1(C#N)CCCCC1
inactive: [9] 91 % of control | [10] 93 % of control | [11] 93 % of control

NC(Cc1cnc(N=Nc2ccc(N=Nc3ncc(CC(N)C(=O)O)[nH]3)cc2)[nH]1)C(=O)O (centres undefined)
inactive: [17] 89 % of control | [18] 89 % of control

CC(/C=N/NC(N)=S)Cc1ccc(C(C)C)cc1 (centres undefined)
inactive: dose: 12.5 mg/kg/injection, schedule: Q04DX003 (ip), vehicle: saline with Tween-80 98 % of control | dose: 18.0 mg/kg/injection, schedule: Q01DX009 (ip), vehicle: alcohol 95 % of control | dose: 28.0 mg/kg/injection, schedule: Q01DX009 (ip), vehicle: alcohol 95 % of control

O=[N+]([O-])c1cc(/C=N\N=C\c2ccco2)ccc1Cl
inactive: dose: 5.0 mg/kg/injection, schedule: Q01DX001 (ip), vehicle: saline 100 % of control | dose: 10.0 mg/kg/injection, schedule: Q01DX001 (ip), vehicle: saline 98 % of control | dose: 20.0 mg/kg/injection, schedule: Q01DX001 (ip), vehicle: saline 96 % of control | dose: 40.0 mg/kg/injection, schedule: Q01DX001 (ip), vehicle: saline 88 % of control | dose: 80.0 mg/kg/injection, schedule: Q01DX001 (ip), vehicle: saline 88 % of control

CCOC(=O)/C=C/c1ccc([N+](=O)[O-])cc1
inactive: [6] 95 % of control | [7] 102 % of control | [8] 98 % of control

O=C1CC(c2ccc(O)cc2)C2(O1)C(=O)OC(C(O)CO)C2O (centres undefined)
inactive: [9] 98 % of control | [10] 101 % of control | [11] 96 % of control

Clc1cccc(N=Cc2ccc3c(c2)OCO3)c1Cl
inactive: [18] 97 % of control | dose: 200.0 mg/kg/injection, schedule: Q01DX009 (ip), vehicle: Klucel (hydroxypropylcellulose) (HPC) 94 % of control | dose: 400.0 mg/kg/injection, schedule: Q01DX009 (ip), vehicle: Klucel (hydroxypropylcellulose) (HPC) 100 % of control

Oc1ccc(Br)cc1C=NC1CCCCC1
inactive: dose: 100.0 mg/kg/injection, schedule: Q04DX002 (ip), vehicle: other 90 % of control | dose: 200.0 mg/kg/injection, schedule: Q04DX002 (ip), vehicle: other 96 % of control | dose: 400.0 mg/kg/injection, schedule: Q04DX002 (ip), vehicle: other 90 % of control

O=C(C[n+]1ccccc1/C=N/O)c1ccccc1
inactive: dose: 12.5 mg/kg/injection, schedule: Q01DX009 (ip), vehicle: saline with Tween-80 101 % of control | dose: 25.0 mg/kg/injection, schedule: Q01DX009 (ip), vehicle: saline with Tween-80 99 % of control | [3] 101 % of control | dose: 75.0 mg/kg/injection, schedule: Q01DX001 (ip), vehicle: other 97 % of control
